These results are taken from patent publication US20250059188A1, “ARYLSULPHONAMIDE COMPOUNDS” (Anaxis Pharma Pty Ltd, priority 2021, published 2025).

Some results are limits rather than exact numbers.

For experiment [1], the target named is human MLKL (full length) (Homo sapiens (Human), UniProt Q8NB16). Nature of the experiment: KINOMEscan binding assay, human MLKL (full length). The settings on record: equilibrium dissociation constant. How it is done:
(§1) Binding affinity of the test compounds for human MLKL (full length), mouse MLKL (full length), human RIPK1 and human RIPK3 was determined using the KINOMEscan™ technology developed by DiscoverX (USA; http://www.discoverx.com). The assay was conducted according to manufacturer instructions.
(§2) Kinase assays. For most assays, kinase-tagged T7 phage strains were grown in parallel in 24-well blocks in an E. coli host derived from the BL21 strain. E. coli were grown to log-phase and infected with T7 phage from a frozen stock (multiplicity of infection=0.4) and incubated with shaking at 32° C. until lysis (90-150 minutes). The lysates were centrifuged (6,000×g) and filtered (0.2 μm) to remove cell debris. The remaining kinases were produced in HEK-293 cells and subsequently tagged with DNA for qPCR detection. […] The liganded beads were blocked with excess biotin and washed with blocking buffer (SeaBlock (Pierce), 1% BSA, 0.05% Tween 20, 1 mM DTT) to remove unbound ligand and to reduce non-specific phage binding. […] All reactions were performed in polypropylene 384-well plates in a final volume of 20 μL. […] The kinase concentration in the eluates was measured by qPCR.
(§3) An 11-point 3-fold serial dilution of each test compound was prepared in 100% DMSO at 100× final test concentration and subsequently diluted to 1× in the assay (final DMSO concentration=1%). Most Kos were determined using a compound top concentration=30,000 nM.
(§4) KD for each test compound was calculated with a standard dose-response curve using the Hill equation (equation (1)): […]
(§5) The Hill Slope was set to −1.
(§6) Curves were fitted using a non-linear least square fit with the Levenberg-Marquardt algorithm.

The target in experiment [2] is human RIPK1 (Homo sapiens (Human), UniProt Q13546). Nature of the experiment: KINOMEscan binding assay, human RIPK1. The conditions noted are these: equilibrium dissociation constant. As for the experimental part:
as §1, §2, §3, §4, §5, §6

For experiment [3], the target named is human RIPK3 (Homo sapiens (Human), UniProt Q9Y572). Briefly: KINOMEscan binding assay, human RIPK3. The settings on record: equilibrium dissociation constant. As for the experimental part: as §1, §2, §3, §4, §5, §6
Sequence of human RIPK3 (Q9Y572 whole entry): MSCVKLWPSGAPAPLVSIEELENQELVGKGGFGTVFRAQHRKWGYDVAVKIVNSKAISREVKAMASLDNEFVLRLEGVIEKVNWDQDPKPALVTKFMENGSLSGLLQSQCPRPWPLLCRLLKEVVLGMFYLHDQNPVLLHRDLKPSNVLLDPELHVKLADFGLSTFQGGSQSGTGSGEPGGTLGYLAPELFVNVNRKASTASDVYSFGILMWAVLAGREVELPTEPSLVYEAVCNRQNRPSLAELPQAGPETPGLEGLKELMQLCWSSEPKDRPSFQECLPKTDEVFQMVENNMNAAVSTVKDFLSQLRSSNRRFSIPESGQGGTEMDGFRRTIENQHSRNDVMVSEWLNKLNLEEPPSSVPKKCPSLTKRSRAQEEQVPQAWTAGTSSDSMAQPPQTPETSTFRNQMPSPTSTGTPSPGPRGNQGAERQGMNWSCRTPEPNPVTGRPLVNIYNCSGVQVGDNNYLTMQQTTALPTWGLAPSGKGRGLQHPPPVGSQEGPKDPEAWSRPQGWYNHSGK
Experiment [4] relates to U937 human histiocytic leukemia cell line. Briefly: Inhibition of TSQ induced necroptosis in U937 cells (CellTitre-Glo). The conditions noted are these: Homo sapiens, U-937, TSQ cocktail (TNF, Smac mimetic, Q-VD-OPh), 48 hours, read-out: Inhibition of TSQ-induced necroptosis (IC50 cell-based assay). As for the experimental part: Cellular Assay: Screening Compounds for Inhibition of TSQ Induced Necroptosis, 384 Well Plate Format.
(§7) • Cell Line ID: U937 human histiocytic leukemia cell line. • Cell Concentration (cells/well): Final cell density is 20000 cells per well. • Cell growth medium: HT-RPMI medium+7.4% Fetal Bovine Serum (FBS). Cells are cultured in Corning 150 cm^2 tissue culture flasks with vented caps at 37° C./5% CO2. • Incubation: Plates were incubated at 37° C./5% CO2 in a humidified incubator for 48 hours following addition of compounds and death stimuli (TSQ cocktail). • Compound concentration: 36 μM starting concentration, 1:3 dilution, 10 point • DMSO final concentration (% v/v): 0.3%. Compounds in TSQ Cocktail (T: TNF; S: Smac Mimetic; Q: Q-VD-OPh) and their Final Concentrations: • hTNF-Fc (100 ng/ml)—produced by standard procedures as shown in Bossen et al., J. Biol. Chem., 2006, 281(20), 13964-13971. • Compound A (500 nM) —Smac mimetic, Tetralogic and SYNthesis med chem • Q-VD-OPh (10 μM) —MP Biomedicals
(§8) The cellular assay was carried out according to the following steps: • 1. Each well was prepared by sequential addition of: • a. DMSO (control; columns 1-2 and 23-24) or compound in DMSO—addition was performed using acoustic transfer of nL volumes of stock compound to give final test concentrations of 36, 12, 4, 1.3, 0.44, 0.148, 0.049, 0.016, 0.005 and 0.002 μM. All wells were backfilled with DMSO to a final total volume in the well of 100 nL. • b. Following compound/DMSO addition in step (a), 40 μL of cell suspension (5×10^5 cells/mL) was added to provide a final cell concentration of 20,000 cells per well, and • c. Following cell addition in step (b), 10 μL of 5×TSQ cocktail (except to positive controls; columns 1 and 23) was added to each well. • 2. After 48 hours, plate was removed from the 37° C. incubator and equilibrated to room temperature for 45 minutes. • 3. 15 μL of room temperature CellTitre-Glo2™ (Promega™) was added to each well. • 4. Shook plates for 2 minutes (˜600 rpm) and incubated at room temperature for 15 minutes to allow signal to stabilise. • 5. Read luminescence readout on a plate reader.
Percent viability was calculated for each compound according to equation (2): […]
(§9) 10 point titration curves were fitted with the 4 parameter logistic nonlinear regression model and the IC50 reported reflect the inflection point of the curve for curve fitting.
(§10) • Assay involving the TSQ cocktail (T: TNF; S: Smac mimetic; Q: Q-VD-OPh): TSQ treatment ensures that cells specifically undergo necroptotic cell death. TNF activates the TNF receptor, Smac mimetic directs the signal away from proinflammatory signaling and toward the RIPK1/RIPK3-mediated cell death pathways, and Q-VD-OPh ensures that the apoptotic response is blocked leaving only the programmed necrosis response. The compounds' activity (solution in DMSO) tested in this TSQ-induced assay was evaluated by determining the number of viable cells in culture by measuring the amount of ATP present as measured by CelltiterGlo. • Counter screen: In parallel, all compounds were tested for their ability to affect cell viability. The same U937 cells were treated with compound in DMSO without the TSQ cocktail. This counter screen enabled evaluation of off-target effects. In this case, cell viability was measured by CelltiterGlo.

Experiment [5] relates to U937 cells. Nature of the experiment: Counter screen: U937 cell viability without TSQ cocktail (off-target effect). The conditions noted are these: Homo sapiens, U-937, compound without TSQ cocktail, read-out: Off-target effect (IC50 cell-based assay). On the set-up: species or system human. How it is done: as §7, §8, §9, §10
For orientation: Counterscreens check selectivity or assay interference.

Sequence of human MLKL (full length) (Q8NB16 whole entry): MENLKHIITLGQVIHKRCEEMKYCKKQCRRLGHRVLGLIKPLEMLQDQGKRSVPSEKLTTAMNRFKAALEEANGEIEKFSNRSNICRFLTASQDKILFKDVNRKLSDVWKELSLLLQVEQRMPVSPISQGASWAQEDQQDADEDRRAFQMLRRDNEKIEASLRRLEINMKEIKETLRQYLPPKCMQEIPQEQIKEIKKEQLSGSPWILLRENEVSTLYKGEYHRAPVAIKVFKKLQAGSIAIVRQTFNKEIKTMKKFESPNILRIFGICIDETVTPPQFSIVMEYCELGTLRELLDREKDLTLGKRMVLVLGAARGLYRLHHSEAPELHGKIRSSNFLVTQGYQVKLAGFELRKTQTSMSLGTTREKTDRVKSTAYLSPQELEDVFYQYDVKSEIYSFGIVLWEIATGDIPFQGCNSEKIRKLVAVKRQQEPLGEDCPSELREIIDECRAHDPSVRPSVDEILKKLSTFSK
Sequence of human RIPK1 (Q13546 whole entry): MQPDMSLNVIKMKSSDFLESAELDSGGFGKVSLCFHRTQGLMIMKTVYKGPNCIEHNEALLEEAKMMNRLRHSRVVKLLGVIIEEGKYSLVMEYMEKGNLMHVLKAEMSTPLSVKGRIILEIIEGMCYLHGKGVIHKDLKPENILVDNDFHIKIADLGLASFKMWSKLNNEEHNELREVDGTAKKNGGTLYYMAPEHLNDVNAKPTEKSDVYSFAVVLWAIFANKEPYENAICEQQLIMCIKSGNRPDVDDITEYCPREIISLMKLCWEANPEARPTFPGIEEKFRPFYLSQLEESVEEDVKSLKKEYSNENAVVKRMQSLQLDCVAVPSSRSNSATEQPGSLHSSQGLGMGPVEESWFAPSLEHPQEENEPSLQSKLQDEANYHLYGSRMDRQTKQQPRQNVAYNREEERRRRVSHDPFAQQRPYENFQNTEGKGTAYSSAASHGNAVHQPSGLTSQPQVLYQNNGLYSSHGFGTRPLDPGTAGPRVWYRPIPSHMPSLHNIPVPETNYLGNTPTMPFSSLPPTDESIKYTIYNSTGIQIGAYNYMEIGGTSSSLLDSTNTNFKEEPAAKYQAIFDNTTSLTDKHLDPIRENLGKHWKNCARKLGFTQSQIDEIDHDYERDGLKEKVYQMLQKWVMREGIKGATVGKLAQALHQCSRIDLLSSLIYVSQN

As usually defined, the Kd is the constant that tells how readily two partners part at equilibrium. For orientation: IC50 means the concentration that inhibits the measured activity by half. In the case of `COCC(Oc1cc(-c2nn(C)c3c(-c4cnn(C5CCOCC5)c4)cnc(N)c23)ccc1NS(=O)(=O)C(F)F)c1ccc(F)cc1` (racemic) [Compound 102, N-(4-(4-amino-1-methyl-7-(1-(tetrahydro-2H-pyran-4-yl)-1H-pyrazol-4-yl)-1H-pyrazolo[4,3-c]pyridin-3-yl)-2-(1-(4-fluorophenyl)-2-methoxyethoxy)phenyl)-1,1-difluoromethanesulfonamide], the equilibrium dissociation constant (Kd) in experiment [1] was below 0.001 µM; in experiment [2], above 10 µM; in experiment [3] it was above 10 µM. Moreover, the figures for the 50% inhibitory concentration (IC50) in experiment [4] and in experiment [5] were 0.01 to 1 µM and above 10 µM, respectively.
`CCS(=O)(=O)Nc1ccc(-c2nn(C)c3c(-c4cccnc4)cnc(N)c23)cc1OCc1ccc(F)cc1` [Compound 1, N-(4-(4-amino-1-methyl-7-(pyridin-3-yl)-1H-pyrazolo[4,3-c]pyridin-3-yl)-2-((4-fluorobenzyl)oxy)phenyl)ethanesulfonamide]: the dissociation constant Kd in experiment [2] and in experiment [3] was above 10 µM each time. Moreover, the IC50 in experiment [4] was 1 to 10 µM; in experiment [5] it was above 10 µM.
For the compound `Cn1cc(-c2cnc(N)c3c(-c4ccc(NS(=O)(=O)C(F)F)c(OCc5ccc(F)cc5)c4)nn(C)c23)cn1` [Compound 16, N-(4-(4-amino-1-methyl-7-(1-methyl-1H-pyrazol-4-yl)-1H-pyrazolo[4,3-c]pyridin-3-yl)-2-((4-fluorobenzyl)oxy)phenyl)-1,1-difluoromethanesulfonamide], the dissociation constant Kd in experiment [1] was below 0.001 µM; in experiment [2], above 10 µM; in experiment [3], above 10 µM. Also, the IC50 was 1 to 10 µM in experiment [4] and above 10 µM in experiment [5].
Regarding `C[C@H](Oc1cc(-c2nn(C)c3c(C4=CCN(C)CC4)cnc(N)c23)ccc1NS(=O)(=O)C(F)F)c1ccc(F)cc1` [Compound 21, (S)-N-(4-(4-amino-1-methyl-7-(1-methyl-1,2,3,6-tetrahydropyridin-4-yl)-1H-pyrazolo[4,3-c]pyridin-3-yl)-2-(1-(4-fluorophenyl)ethoxy)phenyl)-1,1-difluoromethanesulfonamide], the dissociation constant (Kd) in experiment [1] is below 0.001 µM; in experiment [2], above 10 µM; in experiment [3], above 10 µM. The IC50 in experiment [4] was 1 to 10 µM; in experiment [5], above 10 µM.
Regarding `C[C@H](Oc1cc(-c2nn(C)c3c(-c4ccnc(C(F)(F)F)c4)cnc(N)c23)ccc1NS(=O)(=O)C(F)F)c1ccc(F)cc1` [Compound 23, (S)-N-(4-(4-amino-1-methyl-7-(2-(trifluoromethyl)pyridin-4-yl)-1H-pyrazolo[4,3-c]pyridin-3-yl)-2-(1-(4-fluorophenyl)ethoxy)phenyl)-1,1-difluoromethanesulfonamide], the Kd in experiment [1] is 0.001 to 0.1 µM; in experiment [2] it was above 10 µM; in experiment [3], above 10 µM. The figures for the IC50 in experiment [4] and in experiment [5] were 1 to 10 µM and above 10 µM, respectively.
Regarding `Cc1cc(-c2cnc(N)c3c(-c4ccc(NS(=O)(=O)C(F)F)c(O[C@@H](C)c5ccc(F)cc5)c4)nn(C)c23)ccn1` [Compound 24, (S)-N-(4-(4-amino-1-methyl-7-(2-methylpyridin-4-yl)-1H-pyrazolo[4,3-c]pyridin-3-yl)-2-(1-(4-fluorophenyl)ethoxy)phenyl)-1,1-difluoromethanesulfonamide], the values for the Kd in experiment [1], in experiment [2] and in experiment [3] were below 0.001 µM, above 10 µM and above 10 µM, respectively. Also, the results for the IC50 in experiment [4] and in experiment [5] were 0.01 to 1 µM and above 10 µM, respectively.
For `C[C@H](Oc1cc(-c2nn(C)c3c(-c4cccnc4)cnc(N)c23)ccc1NS(=O)(=O)C(F)F)c1ccc(F)cc1` [Compound 25, (S)-N-(4-(4-amino-1-methyl-7-(pyridin-3-yl)-1H-pyrazolo[4,3-c]pyridin-3-yl)-2-(1-(4-fluorophenyl)ethoxy)phenyl)-1,1-difluoromethanesulfonamide], the figures for the equilibrium dissociation constant (Kd) in experiment [1], in experiment [2] and in experiment [3] were below 0.001 µM, above 10 µM and above 10 µM, respectively. Also, the half-inhibitory concentration (IC50) in experiment [4] was 0.01 to 1 µM; in experiment [5], above 10 µM.
As to `Cc1cnccc1-c1cnc(N)c2c(-c3ccc(NS(=O)(=O)C(F)F)c(O[C@@H](C)c4ccc(F)cc4)c3)nn(C)c12` [Compound 32, (S)-N-(4-(4-amino-1-methyl-7-(3-methylpyridin-4-yl)-1H-pyrazolo[4,3-c]pyridin-3-yl)-2-(1-(4-fluorophenyl)ethoxy)phenyl)-1,1-difluoromethanesulfonamide], the values for the IC50 in experiment [4] and in experiment [5] were 1 to 10 µM and above 10 µM, respectively.
As to `CCS(=O)(=O)Nc1ccc(-c2cccc3[nH]nc(N)c23)cc1OCc1ccc(F)cc1` [Compound 62, N-(4-(3-Amino-1H-indazol-4-yl)-2-((4-fluorophenyl)methoxy)phenyl)ethane-1-sulfonamide], the concentration for half-maximal inhibition (IC50) was 1 to 10 µM in experiment [4] and above 10 µM in experiment [5].
With `COc1ccc([C@H](C)Oc2cc(-c3nn(C)c4c(-c5cnn(C6CCOCC6)c5)cnc(N)c34)ccc2NS(=O)(=O)C(F)F)cc1` [Compound 129, (S)-N-(4-(4-amino-1-methyl-7-(1-(tetrahydro-2H-pyran-4-yl)-1H-pyrazol-4-yl)-1H-pyrazolo[4,3-c]pyridin-3-yl)-2-(1-(4-methoxyphenyl)ethoxy)phenyl)-1,1-difluoromethanesulfonamide], the IC50 in experiment [4] is 0.01 to 1 µM; in experiment [5] it was above 10 µM.
Turning to `Cn1nc(-c2ccc(NS(=O)(=O)C(F)F)c(OCc3ccc(Cl)cn3)c2)c2c(N)ncc(-c3cnn(C4CCOCC4)c3)c21` [Compound 136, N-(4-(4-amino-1-methyl-7-(1-(tetrahydro-2H-pyran-4-yl)-1H-pyrazol-4-yl)-1H-pyrazolo[4,3-c]pyridin-3-yl)-2-((5-chloropyridin-2-yl)methoxy)phenyl)-1,1-difluoromethanesulfonamide], the results for the half-maximal inhibitory concentration (IC50) in experiment [4] and in experiment [5] were 0.01 to 1 µM and above 10 µM, respectively.
The corresponding values for `C[C@H](Oc1cc(-c2nn(C)c3c(-c4cnn(C5CCC(C(=O)O)CC5)c4)cnc(N)c23)ccc1NS(=O)(=O)C(F)F)c1ccc(F)cc1` (stereo partly drawn) [Compound 173, 4-(4-{4-amino-3-[4-(difluoromethanesulfonamido)-3-[(1S)-1-(4-fluorophenyl)ethoxy]phenyl]-1-methyl-1H-pyrazolo[4,3-c]pyridin-7-yl}-1H-pyrazol-1-yl)cyclohexane-1-carboxylic acid] are 1 to 10 µM and above 10 µM.
